Legend:
bovine PKC alpha [1] = assay: PKC catalytic activity in vitro (phosphorylation of [ser25]PKC19-31 in detergent cell extracts); format: biochemical; settings: for activation of PKC alpha in vitro / inhibition of PKC alpha catalytic activity: PKC alpha expressed in yeast; for PMA and Ca^2+ stimulated mutant PKC activity: Ca^2+: Ca^2+ stimulation of in vitro catalytic activity; for PMA and Ca^2+ stimulated mutant PKC activity: PMA: PMA stimulation, common symbol for in vitro catalytic activity and PMA-mediated increase of cell doubling time; for PMA and Ca^2+ stimulated mutant PKC activity: -: no stimulus (basal), common symbol for in vitro catalytic activity and cell doubling time response
Procedure: FIG. 4 is a graph which compares PKC mutant and wild type catalytic activities in vitro. […] Catalytic activity was stimulated by combinations of phosphatidylserine (PS), the phorbol ester PMA and calcium ions (Ca^2+). PS, open; PMA+PS, solid; Ca^2+ +PS, diagonally striped.
Cell lysis. About 6×10^8 expressing cells were washed in PBS and were resuspended in 1 ml lysis buffer containing 1% Triton X100, 50 mM Hepes pH 7.4, 15-mM NaC1, 5 mM EDTA, 5 mM EGTA, 10 μg/ml pepstatin, 40 μg/ml leupeptin, 10 μg/ml aprotinin and 200 μg/ml PMSF. Cell suspensions mixed with the same volume of acid washed glass beads (450-500 μm) were lysed mechanically by six 30 second vortexing steps interrupted by cooling on ice for at least 30 second in 50 ml screw cap polypropylene tubes. The lysate was cleared by 4,000 g centrifugation for 15 minutes at 4 degrees C and stored at […] for up to several weeks.
PKC catalytic activity. […] Phosphatidylserine in chloroform, with or without PMA was evaporated under N2 to dryness, resuspended in 20 mM Tris pH 7.5, mixed and sonicated at 4 degrees C for 45 seconds before use. To terminate the reaction the sample was placed on phosphocellulose paper (Whatman P81) which was repeatedly washed in 75 mM phosphoric acid. Bound radioactivity was determined by liquid scintillation spectroscopy.

[2] = test system: Saccharomyces cerevisiae strain 334 expressing bovine PKC alpha; assay: Cell doubling time of yeast cultures expressing PKC alpha wild type and mutant cDNAs; format: cell-based
Procedure: FIG. 2 is a graph of cell doubling time of yeast cultures expressing PKC alpha wild type and mutant cDNAs. Freshly saturated cultures expressing control plasmids (Cont.), normal PKC alpha (PKCa) or deletion mutants D172-225, ND153 or CD26 were diluted to low cell densities. Cell growth was followed on a roller at 30 degrees C to measurable cell densities of the logarithmic growth phase at 0.2-0.6 O.D. 600. […] Average doubling times were calculated.
Yeast strains and culture conditions. PKC expression plasmids and YEp51 or YEp52 as controls were introduced into Saccharomyces cerevisiae strain 334 [MAT alpha, pep 4-3, prb1-122, ura 3-52; leu2-3, 112, reg1-501, gal1]by lithium acetate transformation See e.g., Ito et al. 1983, J. Bacterial. 153: 163. Cells were routinely grown at 30 degrees C on a culture roller or shaker in liquid culture or on 1.5% agar plates. The synthetic medium contained 2% glucose and was leucine-free to select for stable propagation of the expression plasmids. Expressing yeast colonies were identified phenotypically by replica plating on medium containing or lacking PMA. Phenol extracts of crude cell lysates were prepared to re-transform Escherichia coli DH5 alpha. PKC mutants were characterized by DNA sequencing and defined plasmids were re-introduces into S. cerevisiae 334. These strains were used in all experiments shown. 50 ml cultures were routinely inoculated from freshly saturated cultures and grown for 16 h to an optical density of 0.4 at O.D.600.
Cell doubling times were measured by O.D.600 reading of liquid cultures in the presence of 2% galactose as shown in FIG. 2 to test whether they correlate with the specific phenotypes (colony size) caused by normal mutant PKC alpha. […] A normal 4 hours doubling time was measured for all constructs in the absence of galactose.

bovine PKC alpha [3] = assay: [3H]PDBu binding to yeast spheroplasts expressing PKC alpha forms; settings: 14 nM [3H]PDBu
Procedure: FIG. 3 is a graph of phorbol ester binding to cells expressing PKC alpha wild type and mutant proteins.
Phorbol ester binding. About 6×10^8 expressing cells were washed twice in 10 mM K-phosphate buffer pH 7.0, 20 mM EDTA, once in 1M sorbitol and were resuspended in 10 ml 10 mM K-phosphate buffer pH 7.0, 1.1M sorbitol, 0.5 mM CaC12. Cells were incubated with 1 U glusulase (beta-glucuronidase/arylsulfatase from Helix pomatia, Boehringer Mannheim) for about 1 hour under shaking at 30 degrees C to remove the cell wall until test cell suspensions cleared in H2 O due to cell lysis.
Both were about 13-fold elevated over background levels of control cells. Similar findings have been reported for PKC overexpression in transfected mammalian fibroblasts. […] The internal deletion of aa 172-225 led to phorbol ester binding levels reduced by 60% compared to normal PKC alpha, a potential consequence of the removal of parts of the C2 domain.

[4] = test system: Saccharomyces cerevisiae strain 334 expressing bovine PKC alpha; assay: 45Ca2+ uptake into yeast cells expressing PKC alpha forms; format: cell-based
Procedure: FIG. 5 is a graph of the modulation of extracellular Ca2+uptake by PKC alpha wild type and mutants.
^45 Ca^2 + uptake. Expressing yeast cells after 16 h in 2% galactose medium were washed with PBS when reaching 0.5 O.D.600. 10^7 cells were suspended in 100 μl of 50 mM MES pH 6.5, 5 mM MgSO4 and incubated with 1 μM PMA for 1 h at 30 degrees C under shaking on 96-well plates. Subsequently uptake of 2 μCi 45 Ca2+ at 300 μM CaCl2 was measured for 2 hours. Cells were rapidly transferred to Multiscreen filtration microtiter plates (Millipore) and washed four times with 200 μl of 10 mM MES, 10 mM Tris, 35 mM CaC12 pH 6.0. Filters were dried and cell-associated radioactivity was determined by liquid scintillation spectroscopy.
Ca^2+ influx has been reported in response to PKC activation in a variety of eukaryotic cells such as Nitella syncarpa plasmalemma, Aplysia bag cell neurons, rat ventricular myocytes and rat pituitary cells. To test whether the measured catalytic activities and the yeast phenotype correlate with other biological responses mediated by PKC, ^45 Ca^2+ uptake into expressing cells was determined after PMA stimulation. […] These responses are consistent with the catalytic activities and phenotypic responses of the mutants: elevated basal activity of ND153, full and reduced phorbol ester-stimulated activity of normal PKC alpha and D172-225, respectively, and lack of activity for CD26.

[5] = test system: Saccharomyces cerevisiae strain 334 expressing bovine PKC alpha; assay: Phenotypic screen of PKC alpha mutant activity by yeast colony size on agar plates; format: cell-based; settings: 2% galactose, independent of phorbol ester
Procedure: The phenotypic screen of PKC alpha mutant activity by yeast colony size was performed as follows. […] Plates (9 cm diameter) were photograph after 3 days.
Galactose stimulation of cDNA expression resulted for some PKC forms in specific, decreased yeast colony sizes which were either dependent on or independent of phorbol ester activation after 3 days. […] Microscopically small colonies expressing ND153 grew to visible sizes with rates independently of PMA. Colonies expressing PKC alpha grew even more slowly to visible sizes during continued incubation in the presence of PMA.

Compound | activation of PKC alpha in vitro (bovine PKC alpha [1]) | inhibition of PKC alpha catalytic activity (bovine PKC alpha [1]) | PMA and Ca^2+ stimulated mutant PKC activity: Ca^2+ (bovine PKC alpha [1]) | PMA and Ca^2+ stimulated mutant PKC activity: PMA (bovine PKC alpha [1]) | PMA and Ca^2+ stimulated mutant PKC activity: - (bovine PKC alpha [1]) | also measured
C=C(C)C12OC3(c4ccccc4)OC1C1C4OC4(CO)C(O)C4(O)C(=O)C(C)=CC4C1(O3)C(C)C2OC(=O)/C=C/C=C/c1ccccc1 (stereo not shown) [mezerein, reference compound] | efficiently activated |  |  |  |  | 
polymyxin B [reference compound] |  | efficiently inhibited |  |  |  | 
ND84: PKC alpha deletion mutant lacking 84 amino terminal aa |  |  | ++ | + | + | 
CD96: PKC alpha deletion mutant lacking 96 carboxyl terminal aa |  |  | - | - | - | 
ND188: PKC alpha deletion mutant lacking 118 amino terminal aa (printed ND188 in Table 1) |  |  | ++ | + | + | 
CD139: PKC alpha deletion mutant lacking 139 carboxyl terminal aa |  |  | - | - | - | 
ND153: PKCa deletion of aa 1-153 |  |  | ++ | + | + | average cell doubling time ([2]; absence of phorbol ester, 2% galactose, synthetic minimal medium, CD26 and ND153 values phorbol ester-independent): 12 h; [3H]PDBu binding level over background levels of control cells (bovine PKC alpha [3]): virtually background; Ca2+ uptake after PMA stimulation over the control cell background ([4]; 1 μM PMA): unaffected by phorbol ester; increase in Ca^2+ uptake (basal) ([4]; without PMA stimulation, versus control cells): ~3 fold; yeast colony size / phenotype [5]: microscopically small colonies independent of phorbol ester activation; stimulation of catalytic activity by phorbol ester (bovine PKC alpha [1]; PMA + phosphatidylserine): PMA-unresponsive; catalytic activity in the presence of phosphatidylserine alone (elevated level) (bovine PKC alpha [1]; phosphatidylserine alone): 10 fold
CN(C)c1ccc2cc3ccc(N(C)C)cc3nc2c1 [acridine orange, reference compound] |  | efficiently inhibited |  |  |  | 
Cc1cc(N)c2ccccc2[n+]1CCCCCCCCCC[n+]1c(C)cc(N)c2ccccc21 [dequalinium, reference compound] |  | efficiently inhibited |  |  |  | 
CCCCCCCCCCCCC/C=C/[C@@H](O)[C@@H](N)CO[C@@H]1O[C@H](CO)[C@H](O)[C@H](O)[C@H]1O [psychosine, reference compound] |  | efficiently inhibited |  |  |  | 
CCCCCCCCCCNc1cc(CO)c2cc[nH]c2c1 [DHI, 6-(N-decylamino)-4-hydroxymethylindole, reference compound] | efficiently activated |  |  |  |  | 
CN1CCN(CCCN2c3ccccc3Sc3ccc(C(F)(F)F)cc32)CC1 [trifluoperazine, reference compound] |  | efficiently inhibited |  |  |  | 
ND 140: PKC alpha deletion mutant lacking 140 amino terminal aa |  |  | ++ | + | + | 
CC1CNCCN1S(=O)(=O)c1cccc2cnccc12 (racemic) [H-7, reference compound] |  | efficiently inhibited |  |  |  | 
CD110: PKC alpha deletion mutant lacking 110 carboxyl terminal aa |  |  | - | - | - | 
CD149: PKC alpha deletion mutant lacking 149 carboxyl terminal aa |  |  | - | - | - | 
ND158: PKC alpha deletion mutant lacking 158 amino terminal aa |  |  | ++ | + | + | 
CC1=CC23C(=O)C(C=C(COC(=O)c4ccccc4)C(O)C2(O)C1OC(=O)c1ccccc1)C1C(CC3C)C1(C)C (stereo not shown) [ID, ingenol 3,20-dibenzoate, reference compound] | efficiently activated |  |  |  |  | 
CCCCCCCCCCN(C)c1cc(CO)cc(NC(C)=O)c1 [ADMB, 3-(N-acetylamino)-5(N-decyl-N-methylamino) benzyl alcohol, reference compound] | efficiently activated |  |  |  |  | 
CCCCCCCCCCCCCC(=O)O[C@@H]1[C@@H](C)[C@@]2(O)[C@@H](C=C(CO)C[C@]3(O)C(=O)C(C)=C[C@@H]23)[C@@H]2C(C)(C)[C@]12OC(C)=O [PMA, phorbol-12-myristate-13-acetate, reference compound] | efficiently activated |  |  |  |  | response of wild-type yeast cells (doubling time, colony size) ([2]; wild-type yeast cells without mammalian PKC, 1 μM PMA): did not respond
COc1ccc2c(c[n+](C)c3c4cc5c(cc4ccc23)OCO5)c1OC [chelerythrine, reference compound] |  | efficiently inhibited |  |  |  | 
CC(C)[C@H]1C(=O)N[C@H](CO)Cc2c[nH]c3cccc(c23)N1C [(-)-indolactam V, reference compound] | efficiently activated |  |  |  |  | 
CC1=C[C@H]2[C@@]3(O)[C@H](C)C[C@]4(OC(=O)Cc5ccccc5)[C@H]([C@@H]3C=C(CO)C[C@]2(O)C1=O)C4(C)C [dPP, 12-deoxyphorbol 1 3-phenylacetate, reference compound] | efficiently activated |  |  |  |  | 
